Experimental findings from ChEMBL document CHEMBL1944544, “Synthesis and immunological evaluation of the 4-β-glucoside of HMBPP” (Bioorg Med Chem Lett, 2012) are described below.

pEC50: −log10 of the molar value. Activity calls are given as the source filed them. The calls are words filed in the database; no cut-off is given here.

The test system of one experiment is T-cell. Nature of the experiment: Immunostimulatory activity in human Gamma delta T cells expressing Vgamma2Vdelta2T assessed as proliferation up to 300 uM after 16 to 24 hrs by [3H]thymidine incorporation assay. It counts as functional, cell-based.
Details: not given
(In general: Dividing cells build labelled thymidine or BrdU into new DNA.)
For `C/C(=C\CO)CO[C@@H]1O[C@H](CO)[C@@H](O)[C@H](O)[C@H]1O`, the result was inactive.
In the case of `C/C(=C\CO[C@@H]1O[C@H](CO)[C@@H](O)[C@H](O)[C@H]1O)CO`, the outcome was inactive.

Test system in the next experiment: not listed separately
Nature of the experiment: Immunostimulatory activity in human Gamma delta T cells expressing Vgamma2Vdelta2T assessed as proliferation after 16 to 24 hrs by [3H]thymidine incorporation assay. Conditions: T-cell. The experiment is classed as functional, cell-based.
As to `C/C(=C\COP(=O)(O)OP(=O)(O)O)COC(=O)c1cccc(C(=O)c2ccccc2)c1`, the pEC50 (as a rule, −log10 of the EC50, conventionally taken in molar units) was 10.10.
Same read-out and setting: as for `C/C(=C\COP(=O)(O)OP(=O)(O)O)CO[C@@H]1O[C@H](CO)[C@@H](O)[C@H](O)[C@H]1O`, the figure is 7.11; as for `C/C(=C\COP(=O)(O)OP(=O)(O)O)COC(=O)c1ccc(C(=O)c2ccccc2)cc1`, 10.10.
The same measure, in the same setting: as for `C/C(=C\COP(=O)(O)OP(=O)(O)O)COCc1ccc(C(=O)c2ccccc2)cc1`, the figure is 8.74; as for `C/C(=C\COP(=O)(O)OP(=O)(O)O)COCc1cccc(C(=O)c2ccccc2)c1`, 8.74; as for `CC(=O)OC[C@H]1O[C@@H](OC/C(C)=C/COP(=O)(O)OP(=O)(O)O)[C@H](OC(C)=O)[C@@H](OC(C)=O)[C@@H]1OC(C)=O`, 6.44.

A further experiment deals with T-cell. The experiment can be described thus: Ratio of compound EC50 to isopentenyl pyrophosphate EC50 for immunostimulatory activity in human Gamma delta T cells expressing Vgamma2Vdelta2T. The experiment is classed as functional.
Details: not given
Consider `C/C(=C\COP(=O)(O)OP(=O)(O)O)CO[C@@H]1O[C@H](CO)[C@@H](O)[C@H](O)[C@H]1O`, for which the “Ratio EC50” value is listed as 12.
